One assay concerns IL-10 mRNA. Put plainly: Real-time quantitative PCR in lumbar spinal cords of CCI mice, IL-10. The class given is in vivo. As to conditions: PEA 20 mg/kg alone, oral, lumbar spinal cord, vs vehicle. The source says: We elicited peripheral neuropathy in the left sciatic nerve of mice as described elsewhere (e.g., see Bennett & Xie, 1988). In brief, mice were anesthetized in 2-3% isoflurane in O2. Under aseptic conditions, the sciatic nerve was exposed at mid-thigh level through a small incision and loosely tied at 3 distinct sites (spaced at 1-mm interval) with 4-0 chromic catgut (Ethicon, USA). The wound was closed with a single muscle suture (Mersilk 5.0, Ethicon, USA) and glue to fasten the skin. Operated mice were returned to their home cages for recovery. […] Mice were sacrificed by decapitation, the spinal cords were extruded by hydraulic pressure and processed for specific mRNA quantification in lumbar segments by real-time quantitative PCR.
We extracted total RNA from lumbar spinal cords (L3-L6) using TRIzol™ reagent (Thermo Fisher Scientific, Walthman, USA) and purified with the PureLink™ RNA Mini Kit (Invitrogen, Carlsbad, USA) as directed by the supplier. […] RNA concentration and purity were determined using the NanoDrop 2000/2000-c spectrophotometer (Thermo Fisher Scientific, Walthman, USA). cDNA was synthesized using 2 μg of total RNA as input for the High-Capacity cDNA RT Kit with RNase Inhibitor (Applied BioSystems, Foster City, USA) with a final reaction volume of 20 μL. […]

The subject of assay [1] is CCI-evoked mechanical allodynia and heat hyperalgesia. In words: Chronic constriction injury (CCI) of the sciatic nerve: mechanical allodynia and heat hyperalgesia. The class given is in vivo, mice. The method, then:
(§1) We used male CD-1 mice (9-10 weeks old; Charles River, Wilmington, MA, US) weighing 25-30 g upon arrival. They were randomly assigned to treatment groups and housed in ventilated plastic cages (4-5 per cage) in the animal facility of the University of California, Irvine. Animals were maintained in a pathogen-free environment (12-h light/dark cycle) under controlled temperature (20±2° C.) and humidity (55-60%) with food and water available ad libitum. Mice were allowed to acclimate for at least 7 days and experiments were conducted during the light phase of the light/dark cycle. All efforts were made to minimize the number of animals used and their discomfort. All procedures were approved by the Institutional Animal Care and Use Committee at the University of California, Irvine, and were carried out in strict accordance with the National Institutes of Health guidelines for the care and use of animals.
(§2) HOE (code: VOHO-MGC) and PEA (batch No 20190604_03) were supplied by Metagenics Inc. The chemical composition of HOE is presented in Table A below. The extract was aliquoted upon arrival at our facility and kept at −80° C. until use. Before tests, aliquots were thawed at room temperature and the extract was diluted to the desired dose in a vehicle of 85% distilled water/15% Tween 80. Defrosted samples were discarded after use. HOE was subjected to an internal quality control to monitor its content of CBD and CBDA over time. HOE, PEA and their combinations were administered in volumes of 10 mL/kg by oral gavage.
We elicited peripheral neuropathy in the left sciatic nerve of mice as described elsewhere (e.g., see Bennett & Xie, 1988). In brief, mice were anesthetized in 2-3% isoflurane in O2. Under aseptic conditions, the sciatic nerve was exposed at mid-thigh level through a small incision and loosely tied at 3 distinct sites (spaced at 1-mm interval) with 4-0 chromic catgut (Ethicon, USA). The wound was closed with a single muscle suture (Mersilk 5.0, Ethicon, USA) and glue to fasten the skin. Operated mice were returned to their home cages for recovery. Test compounds or vehicle were given by the oral route on day 7 after surgery (acute treatment) and then repeatedly once daily for 7 consecutive days (subchronic treatment). Behavioral tests were performed within 1 h of acute treatment or last subchronic treatment in both operated (ipsilateral) and contralateral paws. Mice were sacrificed by decapitation, the spinal cords were extruded by hydraulic pressure and processed for specific mRNA quantification in lumbar segments by real-time quantitative PCR.
Mechanical sensitivity was assessed using a dynamic plantar aesthesiometer (Cat. No 37450, Ugo Basile, Italy). Mice were placed individually in transparent cages positioned on a wire mesh surface. After a 45-min habituation period, a mechanical stimulus was delivered to the plantar surface of the hind paws through the metal grid by an automated steel filament exerting an increasing force ranging from 0 to 5 grams over 10 s. The force at which the mouse withdrawn its paw (withdrawal threshold, in grams) was measured automatically. Thermal sensitivity was measured using a Hargreaves plantar test apparatus (San Diego Instruments, Inc, CA, USA). Mice were individually placed in small enclosures with a glass floor. After a 45-min habituation period, the plantar surface of the hind paws was exposed to a beam of radiant heat (infrared heat intensity: 3.0) through the glass floor. The cut-off time was set at 15 s. The time taken to withdraw the paw from heat stimulus (withdrawal latency, in seconds) was measured automatically. Each paw was tested 3 times with a 2-min interval between stimuli and the mean paw withdrawal threshold and latency were calculated. Paw thickness was measured in both ipsilateral and contralateral paws using a digital caliper (Cat. No 06-664-16, Fisher scientific, USA). […]

Assay [2] deals with formalin-evoked acute and persistent nociceptive behaviors. In words: Formalin test (acute nocifensive response; PFD7 hypersensitivity and paw edema). It is filed as in vivo, mice. The protocol:
as §1, §2
The formalin test was described in detail previously (e.g., see Dubuisson & Dennis, 1977). We injected formalin (1% v/v, 10 μL) or vehicle (saline, 10 μL) into the plantar surface of the right hind paw of male mice. Test compounds or vehicle (85% distilled water/15% Tween 80) were administered orally 1 h before formalin injection. Following injection, mice were immediately transferred to a transparent observation chamber where nocifensive behavior (time spent licking or biting the injected paw, number of shakings) was continuously recorded by a video camera for 60 min and then measured by trained observers blinded to experimental conditions. Behavioral tests and paw edema measurements were performed on post-formalin day (PFD) 7 in both the injected (ipsilateral) and contralateral paws.
Mechanical sensitivity was assessed using a dynamic plantar aesthesiometer (Cat. No 37450, Ugo Basile, Italy). Mice were placed individually in transparent cages positioned on a wire mesh surface. After a 45-min habituation period, a mechanical stimulus was delivered to the plantar surface of the hind paws through the metal grid by an automated steel filament exerting an increasing force ranging from 0 to 5 grams over 10 s. The force at which the mouse withdrawn its paw (withdrawal threshold, in grams) was measured automatically. Thermal sensitivity was measured using a Hargreaves plantar test apparatus (San Diego Instruments, Inc, CA, USA). Mice were individually placed in small enclosures with a glass floor. After a 45-min habituation period, the plantar surface of the hind paws was exposed to a beam of radiant heat (infrared heat intensity: 3.0) through the glass floor. The cut-off time was set at 15 s. The time taken to withdraw the paw from heat stimulus (withdrawal latency, in seconds) was measured automatically. Each paw was tested 3 times with a 2-min interval between stimuli and the mean paw withdrawal threshold and latency were calculated. Paw thickness was measured in both ipsilateral and contralateral paws using a digital caliper (Cat. No 06-664-16, Fisher scientific, USA). Paw edema was quantified as the difference (paw thickness, in mm) between the ipsilateral paw thickness and the contralateral counterpart.
Results are presented as mean S.E.M. of n experiments. ED50 values were determined by linear regression analysis of dose-response curves. […]

[3] abbreviates: PEA 100 or 300 mg/kg oral once daily for 7 consecutive days, day 14 after CCI.
The mark [4] stands for this setting: single oral PEA administration, dose-response, day 7 after CCI, vs vehicle.
The mark [5] stands for this setting: PEA 300 mg/kg oral single dose, PFD7, vs vehicle.
The mark [6] stands for this setting: PEA at dosages lower than 300 mg/kg oral, PFD7, P>0.05 vs vehicle.

Molecules are shown by their SMILES. Where only a bound is given, the exact number is not on record here.

Data on one compound can be found in patent US12370230B2, “Hemp and PEA formulation and its use” (priority 2019, dated 2025).

In the case of `CCCCCCCCCCCCCCCC(=O)NCCO` [PEA, palmitoylethanolamide], in the assay with IL-10 mRNA, the “IL-10 mRNA levels” value was “halved”. Moreover, in assay [1] (setting [3]), the “effect on heat hyperalgesia, subchronic” value is “reversed” and the “effect on mechanical allodynia, subchronic” value is listed as “reversed”. Also, the “ED50, suppression of mechanical allodynia” value in assay [1] (single oral PEA administration, day 7 after CCI, 95% CI 18.7 to 26.0) was 22.2 mg/kg. Further, the “ED50, suppression of heat hyperalgesia” value in assay [1] (single oral PEA administration, day 7 after CCI, 95% CI 21.8 to 29.1) worked out at 25.1 mg/kg. In addition, in assay [1] (setting [4]), the “suppression of heat hyperalgesia (maximal)” value is listed as at most 109% and the “suppression of mechanical allodynia (maximal)” value is on record as “up to 85%”. Besides, in assay [2] (setting [5]), the “alleviation of heat hyperalgesia, contralateral paw” value was 110%; the “alleviation of heat hyperalgesia, ipsilateral paw” value was determined as 93%; the “attenuation of mechanical allodynia, contralateral paw” value is given as 112%; the “attenuation of mechanical allodynia, ipsilateral paw” value came to 91%. Moreover, the formalin-evoked nocifensive response result in assay [2] (PEA 10, 30, 100 and 300 mg/kg oral) was “dose-dependent suppression”. In addition, in assay [2] (PEA 10, 30, 100 and 300 mg/kg oral, PFD7), the “formalin-evoked inflammatory response (paw thickness)” value is on record as “dose-dependent suppression”. Further, in assay [2] (setting [6]), the “effect on heat hyperalgesia” value was “no effect” and the “effect on mechanical allodynia” value is “no effect”.
